Test results taken from patent EP0096013A1, “Salts of erythromycin showing a combined therapeutic activity, process for their preparation and pharmaceutical formulations containing them” (NUOVO CONSORZIO SANITARIO NAZIONALE, priority 1982, dated 1983).
≈ marks a conversion by molar mass, not a printed value. Like-named read-outs stand apart in the source and are kept apart here.

What was measured:
[1] = tested on: Streptococcus beta-haemolyticus; experiment: in vitro antibacterial activity (MIC) against hospital strains; type: cell-based
solubility in water = type: physicochemical; settings: parts of water needed to dissolve the salt
[2] = Streptococcus beta-haemolyticus strain B (hospital strain)
[3] = Streptococcus beta-haemolyticus strain C (hospital strain)
[4] = Streptococcus beta-haemolyticus strain D (hospital strain)
[5] = Streptococcus beta-haemolyticus strain A (hospital strain)

Row | SMILES | MIC [1, 2] [µg⁻¹ mL⁻¹] | MIC [1, 3] [µg⁻¹ mL⁻¹] | MIC [1, 4] [µg⁻¹ mL⁻¹] | soluble in p. water (solubility in water) [p.] | MIC [1, 5] [µg⁻¹ mL⁻¹] | MIC ([1]; Streptococcus, Streptococcus beta-haemolyticus strain C (hospital strain)) [µg/mL] | soluble in p. ethanol 95% v/v (solubility in ethanol) [p.] | MIC ([1]; Streptococcus, Streptococcus beta-haemolyticus strain A (hospital strain), read-out: MIC) [µg/mL] | MIC ([1]; Streptococcus, Streptococcus beta-haemolyticus strain B (hospital strain), read-out: MIC) [µg/mL] | MIC ([1]; Streptococcus, Streptococcus beta-haemolyticus strain C (hospital strain), read-out: MIC) [µg/mL] | MIC ([1]; Streptococcus, Streptococcus beta-haemolyticus strain D (hospital strain), read-out: MIC) [µg/mL]
1 | CC[C@H]1OC(=O)[C@H](C)[C@@H](O[C@H]2C[C@@](C)(OC)[C@@H](O)[C@H](C)O2)[C@H](C)[C@@H](O[C@@H]2O[C@H](C)C[C@H](N(C)C)[C@H]2O)[C@](C)(O)C[C@@H](C)C(=O)[C@H](C)[C@@H](O)[C@]1(C)O [Erythromycin acetylsalicylate] | 0.6 | 0.3 | 0.075 | 100 | – | – | – | – | – | – | –
2 | CC[C@H]1OC(=O)[C@H](C)[C@@H](O[C@H]2C[C@@](C)(OC)[C@@H](O)[C@H](C)O2)[C@H](C)[C@@H](O[C@@H]2O[C@H](C)C[C@H](N(C)C)[C@H]2O)[C@](C)(O)C[C@@H](C)C(=O)[C@H](C)[C@@H](O)[C@]1(C)O [Erythromycin base, erythromycin A, reference compound] | – | – | 0.6 | – | 5 | 0.6 (≈ 0.818 µM) | – | – | – | – | –
3 | CCC(=O)O[C@H]1[C@H](O[C@@H]2[C@@H](C)[C@H](O[C@H]3C[C@@](C)(OC)[C@@H](O)[C@H](C)O3)[C@@H](C)C(=O)O[C@H](CC)[C@@](C)(O)[C@H](O)[C@@H](C)C(=O)[C@H](C)C[C@@]2(C)O)O[C@H](C)C[C@@H]1N(C)C [Propionylerythromycin (+)-alpha-mercapto-propionyl-glycinate] [Propionylerythromycin (+)-alpha-mercaptopropionyl-glycinate] | 0.3 | 0.3 | 0.3 | 90 | 5 | – | 2 | – | – | – | –
4 | CCC(=O)O[C@H]1[C@H](O[C@@H]2[C@@H](C)[C@H](O[C@H]3C[C@@](C)(OC)[C@@H](O)[C@H](C)O3)[C@@H](C)C(=O)O[C@H](CC)[C@@](C)(O)[C@H](O)[C@@H](C)C(=O)[C@H](C)C[C@@]2(C)O)O[C@H](C)C[C@@H]1N(C)C [Propionylerythromycin acetylsalicylate] | 0.3 | 0.3 | 0.3 | 300 | 5 | – | 4 | – | – | – | –
5 | CCC(=O)O[C@H]1[C@H](O[C@@H]2[C@@H](C)[C@H](O[C@H]3C[C@@](C)(OC)[C@@H](O)[C@H](C)O3)[C@@H](C)C(=O)O[C@H](CC)[C@@](C)(O)[C@H](O)[C@@H](C)C(=O)[C@H](C)C[C@@]2(C)O)O[C@H](C)C[C@@H]1N(C)C [Propionylerythromycin base, propionic ester (2'-.propanoate) of erythromycin A, reference compound] | – | – | – | – | – | – | – | 2.5 (≈ 3.16 µM) | 0.6 (≈ 0.759 µM) | 0.6 (≈ 0.759 µM) | 0.6 (≈ 0.759 µM)
6 | CCC(=O)O[C@H]1[C@H](O[C@@H]2[C@@H](C)[C@H](O[C@H]3C[C@@](C)(OC)[C@@H](O)[C@H](C)O3)[C@@H](C)C(=O)O[C@H](CC)[C@@](C)(O)[C@H](O)[C@@H](C)C(=O)[C@H](C)C[C@@]2(C)O)O[C@H](C)C[C@@H]1N(C)C [propionylerythromycin (-)-alpha-propionyl-glycinate] | – | – | – | 60 | – | – | 2 | – | – | – | –
